How the values were obtained:
[1] = system: P-388 leukemic cells; assay: Antitumor activity against mouse P-388 leukemia (increase in life span, survivors); format: in vivo, mouse (BDF1 mice); conditions: for 35 days survivals No./treated / ILS (increase in life span): P-388; for ILS (increase in life span): Table 1, 35 days, control 7.57-7.79 days; for ILS at 15 mg/kg / ILS at 30 mg/kg: P388
[2] = system: Ehrlich ascites carcinoma cells; assay: Antitumor activity against Ehrlich ascites carcinoma (increase in life span, survivors); format: in vivo, mouse (ICR mice); conditions: for 35 days survivals No./treated / ILS (increase in life span): Ehrlich; for ILS (increase in life span): Table 1, 35 days, control 15.14-15.43 days
Procedure: Antitumor activities against mouse leukemia P-388 carcinoma and Ehrlich ascites carcinoma are shown in the ensuing examples, according to the following list of specifications:
2. Animals: BDF1 mice or ICR mice, aged 5-6 weeks, male, 5 mice in a group and 7 control mice.
3. Tumor cells: P-388 leukemic cells; 1×10^6 /0.2 ml are inoculated intraperitoneally in BDF1 mice. Ehrlich ascites carcinoma cells; 2×10^6 /0.2 ml are inoculated intraperitoneally in ICR mice.
4. Preparation of samples and administration of drugs: Samples are suspended in Tris-HCl saline solution by sonication. 0.1 ml/10 g body weight is administered. Samples are stored at 4° C. in the dark.
Administration: starting two days after inoculation of tumor, once a day for 2-7 days.
5. Increase in life span (ILS) is calculated by the following equation: [formula] Experimental days: 35 days (partially 30 days) mice living in final days are not calculated in ILS.
Antitumor activity of this compound has been shown hereinbefore. Furthermore, over 60% ILS was observed when Ehrlich ascites carcinoma, 2×10^6 cells/0.2 ml was inoculated intraperitoneally in mice and 2 days thereafter this compound (30 mg/kg) was administered once a day for 7 days.

[3] = system: mice; assay: Acute toxicity / mortality in mice; format: in vivo; conditions: for mortality: 150 mg/kg body weight in mice
[4] = Antiviral activity (statement, no method given); conditions: statement in words; virus and dose not stated
[5] = Mus musculus, Table 5, P-388 leukemia treatment, 30 mg (× 5) under head mg/kg

**Q.** For `CCCCCCCCCCCCCCCC(=O)OC[C@H](COP(=O)(O)OC[C@H]1O[C@@H](n2cc(F)c(=O)[nH]c2=O)[C@H](O)[C@@H]1O)OC(=O)CCCCCCCCCCCCCCC` [Example 1], which “35 days survivals No./treated” value ([1]; 30 mg/kg (× 5)) is on record?
**A.** 0/5

**Q.** What about the “ILS (increase in life span)” value ([1]; 30 mg/kg (× 5)) of the same molecule?
**A.** 206.3%

**Q.** What about the “35 days survivals No./treated” value ([2]; 15 mg/kg (× 5)) of the same molecule?
**A.** 2/5

**Q.** And the “ILS (increase in life span)” value ([2]; 15 mg/kg (× 5))?
**A.** > 88.0%

**Q.** What about the acute toxicity ([3]; 150 mg/kg i.p. in mice) of the same molecule?
**A.** No acute toxicity was observed

**Q.** What does the source list for `CCCCCCCCCCCCCCCC(=O)OC[C@H](COP(=O)(O)OCC1=C[C@@H](n2cnc3c(N)ncnc32)[C@H](O)[C@@H]1O)OC(=O)CCCCCCCCCCCCCCC` [Example 2]?
**A.** 35 days survivals No./treated ([1]; 50 mg/kg (× 3)): 1/5; ILS (increase in life span) ([1]; 50 mg/kg (× 3)): > 159.3%; 35 days survivals No./treated ([2]; 10 mg/kg (× 7)): 2/5; ILS (increase in life span) ([2]; 10 mg/kg (× 7)): > 68.7%; acute toxicity ([3]; 250 mg/kg body weight): No acute toxicity was observed

**Q.** Which results are given for `CCCCC/C=C\C/C=C\CCCCCCCC(=O)OC[C@H](COP(=O)(O)OC[C@H]1O[C@@H](n2cc(F)c(=O)[nH]c2=O)[C@H](O)[C@@H]1O)OC(=O)CCCCCCC/C=C\C/C=C\CCCCC` [Example 3]?
**A.** ILS at 15 mg/kg ([1]; mouse P-388 leukemia, 15 kg/mg, 5 times administration): 101%; 35 days survivals No./treated ([1]; 15 mg/kg (× 5)): 0/5; ILS (increase in life span) ([1]; 15 mg/kg (× 5)): 100.8%; acute toxicity ([3]; 75 mg/kg, mice): no acute toxicity

**Q.** For `CCCCCCCCCCCCCCCC(=O)OC[C@H](COP(=O)(O)OC[C@H]1O[C@@H](n2cc(F)c(N)nc2=O)[C@@H](O)[C@@H]1O)OC(=O)CCCCCCCCCCCCCCC` [Example 13], which ILS at 15 mg/kg ([1]; Mus musculus, Table 2, P-388 leukemia, 15 mg/kg (× 5), control 7.57-7.64 days) is on record?
**A.** 152%

**Q.** And the ILS ([2]; Ehrlich ascites carcinoma 2×10^6 cells i.p., 30 mg/kg once a day for 7 days from 2 days after inoculation)?
**A.** over 60%

**Q.** What about the acute toxicity ([3]; 150 mg/kg body weight, mice) of the same molecule?
**A.** No acute toxicity

**Q.** Which ILS at 30 mg/kg ([1]; Mus musculus, Table 2, P-388 leukemia, 30 mg/kg (× 5), control 7.57-7.64 days) does the source give for `CCCCCCCC/C=C\CCCCCCCC(=O)OC[C@H](COP(=O)(O)OC[C@H]1O[C@@H](n2ccc(N)nc2=O)[C@@H](O)[C@@H]1O)OC(=O)CCCCCCC/C=C\CCCCCCCC` [Example 14] here?
**A.** 154%

**Q.** What about the ILS ([2]; mice Ehrlich ascites carcinoma, dose not stated) of the same molecule?
**A.** 65.6%

**Q.** What about the “acute toxicity or mortality” value ([3]; 150 mg/kg body weight, mice) of the same molecule?
**A.** No acute toxicity or mortality

**Q.** With `CCCCCCCCCCCCCCCCCC(=O)OC[C@H](COP(=O)(O)OC[C@H]1O[C@@H](n2cc(F)c(=O)[nH]c2=O)[C@H](O)[C@@H]1O)OC(=O)CCCCCCCCCCCCCCCCC` [Example 16] as the molecule, how does the ILS at 30 mg/kg [1, 5] read?
**A.** 206%

**Q.** Which ILS at 30 mg/kg [1, 5] does the source give for `CCCCCCCCCCCCCCCCCC(=O)OC[C@H](COP(=O)(O)OCC1=C[C@@H](n2cnc3c(N)ncnc32)[C@H](O)[C@@H]1O)OC(=O)CCCCCCCCCCCCCCCCC` [Example 17] here?
**A.** 128%

**Q.** For `CCCCCCCCCCCCCCCCCC(=O)OC[C@H](COP(=O)(O)OC[C@H]1O[C@@H](n2cc(F)c(N)nc2=O)[C@@H](O)[C@@H]1O)OC(=O)CCCCCCCCCCCCCCCCC` [Example 18], which ILS at 30 mg/kg [1, 5] is on record?
**A.** 194%

**Q.** For `CCCCCCCCCCCCCCCCCC(=O)OC[C@H](COP(=O)(O)OC[C@H]1O[C@@H](n2ccc(N)nc2=O)[C@@H](O)[C@@H]1O)OC(=O)CCCCCCCCCCCCCCCCC` [Example 19], which ILS at 30 mg/kg [1, 5] is on record?
**A.** 160%

**Q.** Which ILS at 30 mg/kg [1, 5] does the source give for `CCCCCCCCCCCCCCCCCC(=O)OC[C@H](COP(=O)(O)OC[C@H]1O[C@@H](n2cc(F)c(=O)[nH]c2=O)C[C@@H]1O)OC(=O)CCCCCCCCCCCCCCCCC` [Example 20] here?
**A.** 36%

**Q.** For `CCCCCCCCCCCCCCCC(=O)OC[C@H](COP(=O)(O)OC[C@H]1O[C@@H](n2cnc3c(N)ncnc32)[C@@H](O)[C@@H]1O)OC(=O)CCCCCCCCCCCCCCC` [dipalmitoyl phosphatidyl arabinosyladenine], which antiviral activity [4] is on record?
**A.** have antiviral activity

**Q.** And the mortality [3]?
**A.** no mortality was observed

**Q.** For `CCCCCCCCCCCCCCCC(=O)OC[C@H](COP(=O)(O)OC[C@H]1O[C@@H](n2cc(C)c(=O)[nH]c2=O)[C@@H](O)[C@@H]1O)OC(=O)CCCCCCCCCCCCCCC` [dipalmitoyl phosphatidyl arabinosylthymine], which antiviral activity [4] is on record?
**A.** have antiviral activity

**Q.** And the mortality [3]?
**A.** no mortality was observed
